Laboratory results as given in paper PMC6164588 (International Journal of Environmental Research and Public …, 2018).
Like-named read-outs stand apart in the source and are kept apart here.

Key:
[1] = system: Salmonella typhimurium TA97 strain; assay: Ames assay (Salmonella typhimurium/reverse mutation assay), TA97 strain
From the text: (§1) TA97, TA98, TA100, and TA102 were used as standard test strains. The strains were provided by Jiangsu Provincial Center for Disease Control and Prevention and Guizhou Medical University. TA97 and TA98 strains primarily detect the genotoxic substances of frameshift mutants, while TA100 and TA102 strains detect DNA as a mutagenic substance for base pair substitution. TA102 strain has a different specificity from the other Salmonella strains routinely used in mutagenicity screening. It detects a variety of oxidative mutagens and seems to be more sensitive to some aldehydes and some DNA damaging compounds, which are negative with other Salmonella strains.
(§2) According to the standard Ames bacterial mutagenicity assay and Safety and Technical Standards for Cosmetics, the experiments were performed by the plate incorporation method with or without liver microsomal metabolic activation (S9) mixture. For the pure materials, the highest dose group was generally 5 mg/plate or 5 μL/plate. After the bacterial inhibition experiment, five dose groups (0.05, 0.5, 5, 50, 500 μg/plate) were determined for testing the chemicals. Three parallel plates were prepared for each dose. The chemicals (test chemicals or positive control drugs), the S9 system (with or without), and the S. typhimurium strains (TA97, TA98, TA100, TA102) were added to the nutrient mediums. The negative control (blank and solvent) groups and the positive control groups were also done with three parallel plates.
(§3) The chemicals and concentrations were as follows: In the absence of the S9 system: Dexon 50 μg/plate for the TA97, TA98, and TA102 strains, and NaN3 1.5 μg/plate for the TA100 strain.
(§4) Five concentrations for each chemical were tested for mutagenicity in the standard plate pre-incubation assay. The reported numbers of reverse mutation colonies per plate are mean values from triplicates obtained in one experiment. The experiment was repeated at two times.
(§5) All the plates for the experiments were incubated under the same conditions: 37 ± 0.5 °C, 48 h, dark.
(§6) The test series was set as 100%, 50%, 10%, 5%, and 0.5%. […] Then, 100 μL of the mixtures, which were at different doses, was added to each plate.
(§7) The mutagenicity ratio (MR) is calculated as MR = x/x0(1) where x is the number of reverse mutation colonies on compound-treated plates and x0 is the number of reverse mutation colonies in the negative control group.
(§8) When the mutagenicity ratio (MR) is ≥2 and the dose–response relationship and the background are normal, the mutagenesis is judged as positive.

[2] = system: Salmonella typhimurium TA98 strain; assay: Ames assay (Salmonella typhimurium/reverse mutation assay), TA98 strain
From the text: as §1, §2, §3, §4, §5, §6, §7, §8

[3] = system: Salmonella typhimurium TA100 strain; conditions: for Mutation effect, TA100 strain: absence of S9
From the text: as §1, §2, §3, §4, §5, §6, §7, §8

[4] = system: Salmonella typhimurium TA102 strain; assay: Ames assay (Salmonella typhimurium/reverse mutation assay), TA102 strain
From the text: as §1, §2, §3, §4, §5, §6, §7, §8

[5] = system: S. typhimurium TA97 strain; assay: Bacterial inhibition experiment, TA97 strain
Description: (§9) Bacterial inhibition experiment is necessary according to the standard Ames bacterial mutagenicity assay. Safety and Technical Standards for Cosmetics require that the maximum chemical dose should be 5 mg/plate. […] The maximum concentration of both were 50 mg/mL, then diluted to 25 mg/mL, 10 mg/mL, 5 mg/mL, and 0.5 mg/mL. Plates were poured with LB medium, and 0.1 mL of the above solution and 0.1 mL of bacterial solution per dish were added.
(§10) The criteria for determining the highest dose of the test substance are its toxicity to the bacteria and its solubility. A decrease in spontaneous reversion variables, a decrease in background bacteria, or a decrease in the number of bacteria in the culture being treated are signs of toxicity.
(§11) For this, bacterial growth inhibition tests were designed and carried out.

[6] = system: S. typhimurium TA98 strain; assay: Bacterial inhibition experiment, TA98 strain
Description: as §9, §10, §11

[7] = system: S. typhimurium TA100 strain; assay: Bacterial inhibition experiment, TA100 strain
Description: as §9, §10, §11

[8] = system: S. typhimurium TA102 strain; assay: Bacterial inhibition experiment, TA102 strain
Description: as §9, §10, §11

TA98 strain = conditions: concentrations of 300 μg/plate and 500 μg/plate; cited from earlier work
TA100 strain = conditions: concentrations of 300 μg/plate and 500 μg/plate; cited from earlier work
[9] = dose 50 μg/plate, −S9, positive control

With `O=C(c1ccccc1)c1ccc(O)cc1O` [BP-1, benzophenone-1] the “Mutagenic activities, TA97 strain” value ([1]; +S9 system, doses from 0.05 μg/plate to 500 μg/plate) was “no mutagenic activities were detected”, the “Mutagenicity, TA97 strain” value ([1]; absence of S9, doses of 0.05 and 0.5 μg/plate) was “significant mutagenicity” and the “Reverse mutation colonies TA97 +S9” value ([1]; dose 0.05 μg/plate) was 151 ± 8 colonies per plate. For the same compound, the “Mutagenicity ratio (MR) flag TA97 −S9” value ([1]; dose 0.05 μg/plate) was “* (MR ≥ 2 compared to control)”, the “Reverse mutation colonies TA97 −S9” value ([1]; dose 0.05 μg/plate) was 925 ± 13 colonies per plate and the “Reverse mutation colonies TA97 +S9” value ([1]; dose 0.5 μg/plate) was 143 ± 10 colonies per plate. The “Mutagenicity ratio (MR) flag TA97 −S9” value ([1]; dose 0.5 μg/plate) was “* (MR ≥ 2 compared to control)”, the “Reverse mutation colonies TA97 −S9” value ([1]; dose 0.5 μg/plate) was 697 ± 56 colonies per plate and the “Reverse mutation colonies TA97 +S9” value ([1]; dose 5 μg/plate) was 146 ± 10 colonies per plate. The “Reverse mutation colonies TA97 −S9” value ([1]; dose 5 μg/plate) was 185 ± 10 colonies per plate, the “Reverse mutation colonies TA97 +S9” value ([1]; dose 50 μg/plate) was 149 ± 11 colonies per plate and the “Reverse mutation colonies TA97 −S9” value ([1]; dose 50 μg/plate) was 83 ± 6 colonies per plate. For the same compound, the “Reverse mutation colonies TA97 +S9” value ([1]; dose 500 μg/plate) was 88 ± 20 colonies per plate, the “Reverse mutation colonies TA97 −S9” value ([1]; dose 500 μg/plate) was 6 ± 1 colonies per plate and the “Reverse mutation colonies TA98 +S9” value ([2]; dose 0.05 μg/plate) was 51 ± 7 colonies per plate. For the same compound, the “Reverse mutation colonies TA98 −S9” value ([2]; dose 0.05 μg/plate, −S9) was 43 ± 13 colonies per plate, the “Reverse mutation colonies TA98 +S9” value ([2]; dose 0.5 μg/plate) was 48 ± 2 colonies per plate and the “Reverse mutation colonies TA98 −S9” value ([2]; dose 0.5 μg/plate, −S9) was 46 ± 8 colonies per plate. For the same compound, the “Reverse mutation colonies TA98 +S9” value ([2]; dose 5 μg/plate) was 52 ± 7 colonies per plate, the “Reverse mutation colonies TA98 −S9” value ([2]; dose 5 μg/plate, −S9) was 33 ± 3 colonies per plate and the “Reverse mutation colonies TA98 +S9” value ([2]; dose 50 μg/plate) was 36 ± 1 colonies per plate. The “Reverse mutation colonies TA98 −S9” value ([2]; dose 50 μg/plate, −S9) was 22 ± 9 colonies per plate, the “Reverse mutation colonies TA98 +S9” value ([2]; dose 500 μg/plate) was 23 ± 2 colonies per plate and the “Reverse mutation colonies TA98 −S9” value ([2]; dose 500 μg/plate, −S9) was 0 ± 1 colonies per plate. The “Mutagenicity result, TA98 strain” value ([2]; systems both with and without S9) was “not mutagenic”, the “Mutation effect, TA100 strain” value ([3]; dose 0.5 μg/plate) was “significant mutation effect” and the “Mutation effect, TA100 strain” value ([3]; doses of 5, 50, and 500 μg/plate) was “no obvious mutations”. For the same compound, the “Reverse mutation colonies TA100 +S9” value ([3]; dose 0.05 μg/plate) was 174 ± 13 colonies per plate, the “Reverse mutation colonies TA100 −S9” value ([3]; dose 0.05 μg/plate, −S9) was 239 ± 17 colonies per plate and the “Reverse mutation colonies TA100 +S9” value ([3]; dose 0.5 μg/plate) was 193 ± 12 colonies per plate. The “Mutagenicity ratio (MR) flag TA100 −S9” value ([3]; dose 0.5 μg/plate, −S9) was “* (MR ≥ 2 compared to control)”, the “Reverse mutation colonies TA100 −S9” value ([3]; dose 0.5 μg/plate, −S9) was 458 ± 29 colonies per plate and the “Reverse mutation colonies TA100 +S9” value ([3]; dose 5 μg/plate) was 191 ± 8 colonies per plate. The “Reverse mutation colonies TA100 −S9” value ([3]; dose 5 μg/plate, −S9) was 153 ± 2 colonies per plate, the “Reverse mutation colonies TA100 +S9” value ([3]; dose 50 μg/plate) was 196 ± 4 colonies per plate and the “Reverse mutation colonies TA100 −S9” value ([3]; dose 50 μg/plate, −S9) was 188 ± 15 colonies per plate. For the same compound, the “Reverse mutation colonies TA100 +S9” value ([3]; dose 500 μg/plate) was 122 ± 4 colonies per plate, the “Reverse mutation colonies TA100 −S9” value ([3]; dose 500 μg/plate, −S9) was 181 ± 10 colonies per plate and the “Reverse mutation colonies TA102 +S9” value ([4]; dose 0.05 μg/plate, +S9) was 350 ± 11 colonies per plate. The “Reverse mutation colonies TA102 −S9” value ([4]; dose 0.05 μg/plate, −S9) was 311 ± 12 colonies per plate, the “Reverse mutation colonies TA102 +S9” value ([4]; dose 0.5 μg/plate, +S9) was 369 ± 10 colonies per plate and the “Reverse mutation colonies TA102 −S9” value ([4]; dose 0.5 μg/plate, −S9) was 369 ± 18 colonies per plate. For the same compound, the “Reverse mutation colonies TA102 +S9” value ([4]; dose 5 μg/plate, +S9) was 443 ± 8 colonies per plate, the “Reverse mutation colonies TA102 −S9” value ([4]; dose 5 μg/plate, −S9) was 355 ± 20 colonies per plate and the “Reverse mutation colonies TA102 +S9” value ([4]; dose 50 μg/plate, +S9) was 429 ± 8 colonies per plate. For the same compound, the “Reverse mutation colonies TA102 −S9” value ([4]; dose 50 μg/plate, −S9) was 407 ± 16 colonies per plate, the “Reverse mutation colonies TA102 +S9” value ([4]; dose 500 μg/plate, +S9) was 390 ± 10 colonies per plate and the “Reverse mutation colonies TA102 −S9” value ([4]; dose 500 μg/plate, −S9) was 7 ± 4 colonies per plate. For the same compound, the “Mutagenicity, TA102 strain” value ([4]; presence or absence of S9) was “not mutagenic”, the “Bacterial inhibition t-Test Result TA97” value ([5]; dose 50 μg/plate) was “−” and the “Bacterial inhibition t-Test Result TA97” value ([5]; dose 500 μg/plate) was “+ (t-test (p < 0.05))”. For the same compound, the “Bacterial inhibition t-Test Result TA97” value ([5]; dose 1000 μg/plate) was “+ (t-test (p < 0.05))”, the “Bacterial inhibition t-Test Result TA97” value ([5]; dose 2500 μg/plate) was “++ (t-test (p < 0.01))” and the “Bacterial inhibition t-Test Result TA97” value ([5]; dose 5000 μg/plate) was “++ (t-test (p < 0.01))”. The “Bacterial inhibition t-Test Result TA98” value ([6]; dose 50 μg/plate) was “−”, the “Bacterial inhibition t-Test Result TA98” value ([6]; dose 500 μg/plate) was “+ (t-test (p < 0.05))” and the “Bacterial inhibition t-Test Result TA98” value ([6]; dose 1000 μg/plate) was “+ (t-test (p < 0.05))”. The “Bacterial inhibition t-Test Result TA98” value ([6]; dose 2500 μg/plate) was “++ (t-test (p < 0.01))”, the “Bacterial inhibition t-Test Result TA98” value ([6]; dose 5000 μg/plate) was “++ (t-test (p < 0.01))” and the “Bacterial inhibition t-Test Result TA100” value ([7]; dose 50 μg/plate) was “−”. For the same compound, the “Bacterial inhibition t-Test Result TA100” value ([7]; dose 1000 μg/plate) was “+ (t-test (p < 0.05))”, the “Bacterial inhibition t-Test Result TA100” value ([7]; dose 2500 μg/plate) was “++ (t-test (p < 0.01))” and the “Bacterial inhibition t-Test Result TA100” value ([7]; dose 5000 μg/plate) was “++ (t-test (p < 0.01))”. The “Bacterial inhibition t-Test Result TA102” value ([8]; dose 50 μg/plate) was “−”, the “Bacterial inhibition t-Test Result TA102” value ([8]; dose 500 μg/plate) was “+ (t-test (p < 0.05))” and the “Bacterial inhibition t-Test Result TA102” value ([8]; dose 1000 μg/plate) was “+ (t-test (p < 0.05))”. For the same compound, the “Bacterial inhibition t-Test Result TA102” value ([8]; dose 2500 μg/plate) was “++ (t-test (p < 0.01))”, the “Bacterial inhibition t-Test Result TA102” value ([8]; dose 5000 μg/plate) was “++ (t-test (p < 0.01))” and the “Mutagenicity, TA98 strain” value (TA98 strain) was “None of the compounds produced clear positive mutagenicity results”. For the same compound, the “Mutagenicity, TA100 strain” value (TA100 strain) was “None of the compounds produced clear positive mutagenicity results”.

In the case of `O=C1c2cccc(O)c2C(=O)c2c(O)cccc21` [Dantron, reference compound], the “Reverse mutation colonies TA102 +S9” value ([4]; dose 50 μg/plate, +S9) is reported as 625 ± 71 colonies per plate and the “Mutagenicity ratio (MR) flag TA102 +S9” value ([4]; dose 50 μg/plate, +S9, positive control) is reported as “* (MR ≥ 2 compared to control)”.

In the case of `CN(C)c1ccc(N=NS(=O)(=O)[O-])cc1.[Na+]` [Dexon, reference compound], the “Reverse mutation colonies TA97 −S9” value ([1]; dose 50 μg/plate) is reported as 1987 ± 203 colonies per plate, the “Mutagenicity ratio (MR) flag TA97 −S9” value ([1]; dose 50 μg/plate, positive control) is reported as “* (MR ≥ 2 compared to control)” and the “Reverse mutation colonies TA98 −S9” value ([2]; dose 50 μg/plate, −S9) is reported as 1065 ± 137 colonies per plate. For the same compound, the “Mutagenicity ratio (MR) flag TA98 −S9” value [2, 9] was “* (MR ≥ 2 compared to control)”, the “Reverse mutation colonies TA102 −S9” value ([4]; dose 50 μg/plate, −S9) was 586 ± 83 colonies per plate and the “Mutagenicity ratio (MR) flag TA102 −S9” value [4, 9] was “* (MR ≥ 2 compared to control)”.
